Literature values as cited in patent US20200037638A1, “FORMULATIONS” (Molecular Infusions, LLC., priority 2017, published 2020).

## CCCCCc1cc(O)c2c(c1)OC(C)(C)[C@@H]1CCC(C)=C[C@@H]21 [dronabinol, Δ9-tetrahydrocannabinol]
After administration
  Duration of appetite stimulant effect: ≥ 24 h
After oral administration
  Duration of action for psychoactive effects: 4 to 6 h
  Onset of action: 0.5 to 1 h
  Peak effect (time): 2 to 4 h
After single oral doses
  Absorbed: 90 to 95%
oral, first pass hepatic metabolism and high lipid solubility
  Administered dose reaching the systemic circulation: 10 to 20%
